Assay results reported in patent publication US20030069200A1, “Use of glucosylceramide synthesis inhibitors in brain cancertherapy” (priority 2000, published 2003).

What was measured:
neuroblastoma cells = conditions: in vitro, cited from earlier work
CT-2A cells = experiment: Growth of cultured CT-2A brain tumour cells (Coulter counter cell counts); assay type: cell-based; conditions: NB-DNJ 200 μM
Procedure: (§1) Approximately 0.5×10^4 cells for CT-2A and 1×10^4 cells for EPEN were seeded in wells of a 24 well plate and cultured for 24 hours in DMEM supplemented with 10% FBS. The exact cellular origin of the CT-2A and EPEN tumours is not known, but Dr. Allan Yates, Chief of Neuropathology at Ohio State University classified the tumours as poorly differentiated anaplastic astrocytomas (see Seyfried et al Mol. Chem. Neuropathol. 17: 147-167, 1992).
(§2) Cells were cultured for a further 7 days in the same medium for control cells or in the presence of NB-DNJ (200 μM) for treated cells. Cells were counted on days 2, 4, 6 and 8 using a Coulter counter and the results are shown in FIGS. 2A and 2B where values are expressed as means±SEM (N=3).

EPEN cells = experiment: Growth of cultured EPEN brain tumour cells (Coulter counter cell counts); assay type: cell-based; conditions: NB-DNJ 200 μM
Procedure: as §1, §2

CT-2A tumour [1] = experiment: Subcutaneous CT-2A tumour growth in C57BL/6 mice; assay type: in vivo, mouse; conditions: NB-DNJ 2400 mg/kg body wt/day in diet, nine days
Procedure: (§3) CT-2A and EPEN tumours were grown subcutaneously in the flanks of six-week old syngeneic C57BL/6 mice. The treated mice were maintained on a powdered mouse chow diet (Prolab, Agway) that contained NB-DNJ (2400 mg/kg body weight/day). The control mice received only the powdered mouse chow. Tumours were enzymatically dissociated as described in Ecsedy et al, J. Lipid Res., 39: 2218-2227, 1998 and approximately 5×10^6 cells from each tumour were inoculated subcutaneously into the flanks of the host mice. For the CT-2A-bearing mice, drug treatment was started six days post-tumour cell inoculation and was continued for a total of nine days. For the EPEN-bearing mice, drug treatment was started eleven days post-tumour inoculation and was continued for a total of ten days. This was done because the EPEN tumour grows more slowly than the CT-2A tumour (Cotterchio et al. 1993. Mol. Chem. Neuropathol. 20:163-172). The method of Looney was used to determine tumour growth rates (volume increase/day) as previously described (Cotterchio et al. 1993. Mol. Chem. Neuropathol. 20:163-172). The results are shown in FIGS. 3A and 3B where values are expressed as means±SEM except for the control EPEN, which is the mean of two independent samples.

EPEN tumour = experiment: Subcutaneous EPEN tumour growth in C57BL/6 mice; assay type: in vivo, mouse; conditions: NB-DNJ 2400 mg/kg body wt/day in diet, ten days
Procedure: as §3

CT-2A tumour [2] = experiment: Intra-cranial CT-2A tumour growth and ganglioside content in C57BL/6J mice; assay type: in vivo, mouse
Procedure: (§4) CT-2A tumour tissue was minced and tissue pieces (about 1 mm^3) were implanted into the cerebral cortex of C57BL/6J mice using a trocar as described previously (Seyfried et al. 1987. Cancer Res. 47:3538-3542). The NB-DNJ diet as in Example 2. Control mice received only the powdered mouse chow. Tumours were excised from surrounding brain tissue, frozen, and lyophilized to remove water. Gangliosides were isolated and purified and content expressed as μg sialic acid/100 mg dry weight, as determined using the resorcinol reagent, as previously described (Seyfried et al. 1978. J. Neurochem. 31:21-27).

CT-2A tumour [3] = experiment: Ganglioside neuraminic acid content of the CT-2A mouse brain tumour (Table 1); assay type: in vivo; conditions: treated mice, mean of N=2
Procedure: as §4
In addition, NB-DNJ reduced ganglioside content in the CT-2A mouse brain tumour grown subcutaneously (See FIG. 4B and Table 1 below).

[4] = intra-cranial CT-2A tumours, NB-DNJ diet

In the case of `CCCCCCCCCC(=O)N[C@H](CN1CCOCC1)[C@H](O)c1ccccc1` [D-PDMP, D-threo-1-phenyl-2-decanoylamino-3-morpholino-1-propanol], the “ganglioside shedding by neuroblastoma tumours” value (neuroblastoma cells; Li et al 1996) is listed as “reduces ganglioside shedding” and the “neurite outgrowth by neuroblastoma cells” value (neuroblastoma cells; Uemura et al 1990) is listed as “inhibit neurite outgrowth”.

In the case of `CCCCN1C[C@H](O)[C@@H](O)[C@H](O)[C@H]1CO` [NB-DNJ, N-butyldeoxynojirimycin], the “percentage of dead cells vs control (trypan blue exclusion)” value (CT-2A cells; CT-2A culture) is reported as “did not differ significantly”, the “growth inhibition of cultured CT-2A tumour cells” value (CT-2A cells; after 8 days) is reported as “about 50%” and the “percentage of dead cells vs control (trypan blue exclusion)” value (EPEN cells; EPEN culture) is reported as “did not differ significantly”. The “growth inhibition of cultured EPEN tumour cells” value (EPEN cells; after 8 days) was “about 50%”, the “reduction of tumour growth rate compared to untreated controls” value (CT-2A tumour [1]) was 68% and the “reduction of tumour growth rate compared to untreated controls” value (EPEN tumour) was 76%. The “intra-cranial growth of the CT-2A tumour” value (CT-2A tumour [2]; NB-DNJ dietary treatment) was “significantly reduced”, the “blood brain barrier penetration” value (CT-2A tumour [2]; inferred from the effect on intra-cranial tumours, dietary treatment) was “can penetrate the blood brain barrier” and the “reduction in ganglioside concentration” value (CT-2A tumour [2]; [4]) was 53%. For the same compound, the “reduction in tumour dry weight” value (CT-2A tumour [2]; [4]) was 55%, the “Ganglioside Neuraminic Acid Content, NeuAc” value (CT-2A tumour [3]) was 21.8 μg/100 mg dry wt and the “Ganglioside Neuraminic Acid Content, NeuGc” value (CT-2A tumour [3]) was 5.6 μg/100 mg dry wt. The “Ganglioside Neuraminic Acid Content, Total” value (CT-2A tumour [3]) was 27.1 μg/100 mg dry wt.
